According to PubChem BioAssay AID1259408 (Genetic Toxicology Data Bank (GENE-TOX), 2018):
Activity calls are given as the source filed them. The rule behind the calls is not given here.

Tested on: GENE-TOX genotoxicity assays, various organisms and cells
Assay: GENE-TOX mutagenicity studies
Settings: for call: Assay Type: In vivo carcinogenicity studies
[1] = Species/Cell Type: Mammalian polychromatic erythrocytes, Assay Type: Micronucleus test, chromosome aberrations, Assay Code: MNT+, Evaluation Type: Evaluation B (Post-1980)
[2] = Species/Cell Type: Salmonella typhimurium (one or more of the five standard strains: TA98, TA100, TA1535, TA1537, and TA1538), Assay Type: Histidine reverse gene mutation, Ames assay, Assay Code: SALT, Evaluation Type: Evaluation A (Pre-1980)
[3] = Species/Cell Type: Escherichia coli WP2 UVRA, Assay Type: Tryptophan reverse gene mutation, Assay Code: WPU-, Evaluation Type: Evaluation A (Pre-1980)
[4] = Species/Cell Type: Drosophila melanogaster, Assay Type: Sex-linked recessive lethal gene mutation, Assay Code: SRLT, Evaluation Type: Evaluation A (Pre-1980)
[5] = Species/Cell Type: Salmonella typhimurium (one or more of the five standard strains: TA98, TA100, TA1535, TA1537, and TA1538), Assay Type: Histidine reverse gene mutation, Ames assay, Assay Code: SAL+, Evaluation Type: Evaluation A (Pre-1980)
[6] = Species/Cell Type: Saccharomyces cerevisiae, Assay Type: Reverse gene mutation, Assay Code: YERT, Evaluation Type: Evaluation A (Pre-1980)
[7] = Species/Cell Type: Nonhuman, Assay Code: CCG-, Evaluation Type: Evaluation A (Pre-1980)
[8] = Species/Cell Type: Nonhuman, Assay Code: CCG+, Evaluation Type: Evaluation A (Pre-1980)
[9] = Species/Cell Type: Human, Sex: Male, Assay Type: Sperm morphology, Assay Code: SPH-, Evaluation Type: Evaluation A (Pre-1980)
[10] = Species/Cell Type: Human lymphocytes, Assay Type: Sister-chromatid exchange (SCE) in vitro, Assay Code: SCL+D, Dose Response: With dose response, Evaluation Type: Evaluation B (Post-1980)
[11] = Species/Cell Type: Human, Assay Type: Sister-chromatid exchange (SCE) in vitro, Assay Code: SC1+D, Dose Response: With dose response, Evaluation Type: Evaluation B (Post-1980)
[12] = Species/Cell Type: Chinese hamster lung (V79) cells, Assay Type: Forward gene mutation at the HPRT or ouabain locus, Assay Code: V79+, Evaluation Type: Evaluation A (Pre-1980)
[13] = Species/Cell Type: Drosophila melanogaster, Assay Type: Sex-linked recessive lethal gene mutation, Assay Code: SRL+, Evaluation Type: Evaluation A (Pre-1980)
[14] = Species/Cell Type: Bacillus subtilis (H17 vs M45), Assay Type: Rec-assay, spot test, DNA effects (bacterial DNA repair), Assay Code: REW+, Evaluation Type: Evaluation A (Pre-1980)
[15] = Species/Cell Type: Chinese hamster ovary (CHO) cells, Assay Type: Forward gene mutation at the HPRT locus, Assay Code: CHOT, Evaluation Type: Evaluation B (Post-1980)
[16] = Species/Cell Type: Zea mays (corn), Assay Type: Gene mutation, Assay Code: ZEM+, Evaluation Type: Evaluation A (Pre-1980)

CN=C1CN(O)C(c2ccccc2)=c2cc(Cl)ccc2=N1
mutagenic call [1]: active; positive | mutagenic call (Species/Cell Type: Saccharomyces cerevisiae, Assay Type: Mitotic recombination or gene conversion, Assay Code: YEC-*, Activation: With metabolic activation, Evaluation Type: Evaluation A (Pre-1980)): inactive; negative | mutagenic call [2]: no conclusion | mutagenic call (Species/Cell Type: Salmonella typhimurium, Assay Type: Forward and reverse gene mutation, host-mediated assay, Assay Code: HMAT, Evaluation Type: Evaluation A (Pre-1980)): no conclusion

Cc1csc(NNC=O)n1
mutagenic call (Species/Cell Type: Escherichia coli WP2, Assay Type: Tryptophan reverse gene mutation, Assay Code: WP2-, Evaluation Type: Evaluation A (Pre-1980)): inactive; negative | mutagenic call [3]: inactive; negative

Nc1ncnc2nc[nH]c12
mutagenic call (Species/Cell Type: Allium cepa, Assay Type: Chromosome aberrations, Assay Code: ALC+D, Dose Response: With dose response, Evaluation Type: Evaluation A (Pre-1980)): active; positive | mutagenic call [4]: no conclusion

Oc1cc(Cl)c(-c2cc(Cl)ccc2Cl)cc1Cl
mutagenic call [2]: no conclusion

CN(C)C(c1ccccc1)(c1ccccc1)N(C)C
mutagenic call (Species/Cell Type: Salmonella typhimurium (one or more of the five standard strains: TA98, TA100, TA1535, TA1537, and TA1538), Assay Type: Histidine reverse gene mutation, Ames assay, Assay Code: SAL-, Evaluation Type: Evaluation A (Pre-1980)): inactive; negative

NC(=O)N(CCO)N=O
mutagenic call [5]: active; positive

CN=C=O
mutagenic call (Species/Cell Type: Mammalian polychromatic erythrocytes, Assay Type: Micronucleus test, chromosome aberrations, Assay Code: MNT+U, Dose Response: Unconfirmed positive response, Evaluation Type: Evaluation B (Post-1980)): active; positive

O=C(COc1ccc(Br)cc1CN1CCOCC1)N/N=C/c1ccccc1
mutagenic call [6]: no conclusion

NC(=O)c1ccccc1C(N)=O
call [7]: inactive; negative

c1ccc2c(c1)-c1ccc3ccc4cccc5cc-2c1c3c45
call [8]: active; positive

COc1ccc(CCC(=O)c2c(O)cc(O[C@@H]3O[C@H](CO)[C@@H](O)[C@H](O)[C@H]3O[C@@H]3O[C@@H](C)[C@H](O)[C@@H](O)[C@H]3O)cc2O)cc1O
mutagenic call [1]: active; positive | mutagenic call (Species/Cell Type: Salmonella typhimurium, Assay Type: Forward and reverse gene mutation, host-mediated assay, Assay Code: HMA-, Evaluation Type: Evaluation A (Pre-1980)): inactive; negative

O=C(Nc1nc(-c2ccc([N+](=O)[O-])o2)cs1)C(F)(F)F
mutagenic call (Species/Cell Type: Escherichia coli WP2, Assay Type: Tryptophan reverse gene mutation, Assay Code: WP2+, Evaluation Type: Evaluation A (Pre-1980)): active; positive | mutagenic call [3]: inactive; negative | mutagenic call [5]: active; positive

CCCCN(CCCO)N=O
mutagenic call [5]: active; positive

NC(Cc1c[nH]c2ccccc12)C(=O)O (centres undefined)
mutagenic call [9]: inactive; negative

CC1=C(O)C(=O)CC1
mutagenic call [10]: active; positive | mutagenic call [11]: active; positive

O=C(O)C(F)(F)F
mutagenic call [2]: no conclusion

OC1C2OC2=C2C=c3ccc4cccc5ccc(c3c54)C2C1O (centres undefined)
mutagenic call [12]: active; positive

[Mg+2]
mutagenic call (Species/Cell Type: Bacillus subtilis (H17 vs M45), Assay Type: Rec-assay, spot test, DNA effects (bacterial DNA repair), Assay Code: REW-, Evaluation Type: Evaluation A (Pre-1980)): inactive; negative

O=C1C=C(N2CC2)C(=O)C=C1N1CC1
mutagenic call [13]: active; positive

[Cl][Sb]([Cl])[Cl]
mutagenic call [14]: active; positive

Cc1c2c(c(C)c3c1ccc1ccccc13)C=C[C@@H](O)[C@@H]2O
mutagenic call [12]: active; positive | mutagenic call (Species/Cell Type: Mouse prostate cells, Assay Type: Cell transformation, Assay Code: CTM+D, Dose Response: With dose response, Evaluation Type: Evaluation A (Pre-1980)): active; positive | call (Species/Cell Type: Nonhuman, Assay Code: CCGT, Evaluation Type: Evaluation A (Pre-1980)): no conclusion

CCN(CC)Cc1cc(CC(=O)NN)ccc1OC(C)C
mutagenic call [6]: no conclusion

CCCCN(N=O)C(=O)OCC
call [8]: active; positive | mutagenic call (Species/Cell Type: Nonhuman, Assay Type: Sister-chromatid exchange (SCE) in vitro, Assay Code: SC2+, Evaluation Type: Evaluation A (Pre-1980)): active; positive

Cc1[nH]cnc1CSCCN=C(NC#N)N(C)N=O
mutagenic call [10]: active; positive | mutagenic call [11]: active; positive | mutagenic call (Species/Cell Type: Nonhuman, Assay Type: Sister-chromatid exchange (SCE) in vitro, Assay Code: SC2+D, Dose Response: With dose response, Evaluation Type: Evaluation B (Post-1980)): active; positive

CC(=O)[O-].CC(=O)[O-].CC(=O)[O-].[Cr+3]
mutagenic call [15]: no conclusion | mutagenic call (Species/Cell Type: Nonhuman, Assay Type: Sister-chromatid exchange (SCE) in vitro, Assay Code: SC2T, Evaluation Type: Evaluation B (Post-1980)): no conclusion

O=C(O)O
mutagenic call [14]: active; positive | mutagenic call (Species/Cell Type: Escherichia coli polA (W3119 vs P3478), Assay Type: Rec-assay, DNA effects (bacterial DNA repair), Assay Code: RE1T, Evaluation Type: Evaluation A (Pre-1980)): no conclusion

O=c1ccn([C@H]2C[C@H](O)[C@@H](COP(=O)(O)O)O2)c(=O)[nH]1
mutagenic call [4]: no conclusion

COc1cc(Cc2cnc(N)nc2N)cc(OC)c1OC
mutagenic call (Species/Cell Type: Neurospora crassa, Assay Type: Aneuploidy, chromosome aberrations, Assay Code: NEN+, Evaluation Type: Evaluation A (Pre-1980)): active; positive | mutagenic call (Species/Cell Type: Nonhuman, Assay Type: Sister-chromatid exchange (SCE) in vitro, Assay Code: SC2+, Evaluation Type: Evaluation B (Post-1980)): active; positive

Nc1cc([N+](=O)[O-])ccc1C(=O)O
call [7]: inactive; negative

C1O[C@@H]1[C@@H]1CO1
mutagenic call (Species/Cell Type: Arabidopsis species, Assay Type: Gene mutation, Assay Code: ARM+, Evaluation Type: Evaluation A (Pre-1980)): active; positive | mutagenic call (Species/Cell Type: Schizosaccharomyces pombe, Assay Type: Reverse gene mutation, Assay Code: YEZ+, Evaluation Type: Evaluation A (Pre-1980)): active; positive | mutagenic call [16]: active; positive

Cc1c2ccncc2c(C)c2c1[nH]c1ccc(O)cc12
mutagenic call [15]: no conclusion

ClC1=C(Cl)[C@]2(Cl)C3C(Cl)C(Cl)CC3[C@@]1(Cl)C2(Cl)Cl (some centres undefined)
mutagenic call [12]: active; positive | call (Species/Cell Type: Nonhuman, Assay Code: CCG+L, Evaluation Type: Evaluation A (Pre-1980)): active; positive | mutagenic call (Species/Cell Type: Rodents, Sex: Male, Assay Type: Dominant lethal test, Assay Code: DLTT, Evaluation Type: Evaluation A (Pre-1980)): no conclusion | mutagenic call [16]: active; positive

c1ccc2c(c1)ccc1nc3c(ccc4ccccc43)cc12
mutagenic call (Species/Cell Type: Fischer rat embryo (RLV/1706) cells, Assay Type: Cell transformation, viral enhanced, Assay Code: CTR+, Evaluation Type: Evaluation A (Pre-1980)): active; positive | call [8]: active; positive

CC(=O)c1cc(O)c(C(C)C)c2cc(C)c(-c3c(C)cc4c(C(C)C)c(O)c(O)c(C=O)c4c3O)c(O)c12
mutagenic call (Species/Cell Type: Mammalian polychromatic erythrocytes, Assay Type: Micronucleus test, chromosome aberrations, Assay Code: MNTT, Evaluation Type: Evaluation B (Post-1980)): no conclusion | mutagenic call (Species/Cell Type: Nonhuman, Assay Type: Sister-chromatid exchange (SCE) in vivo, Assay Code: SC3+D, Dose Response: With dose response, Evaluation Type: Evaluation B (Post-1980)): active; positive

N#CCCN
mutagenic call [4]: no conclusion | mutagenic call (Species/Cell Type: Nonhuman, Assay Type: Sister-chromatid exchange (SCE) in vivo, Assay Code: SC3+, Evaluation Type: Evaluation B (Post-1980)): active; positive

O=C1c2c(O)ccc(O)c2C(=O)c2c(NCCc3ccccc3)ccc(NCCc3ccccc3)c21
mutagenic call (Species/Cell Type: Salmonella typhimurium (one or more of the five standard strains: TA98, TA100, TA1535, TA1537, and TA1538), Assay Type: Histidine reverse gene mutation, Ames assay, Assay Code: SAL+/-*, Activation: With metabolic activation, Evaluation Type: Evaluation A (Pre-1980)): inactive; positive without activation, negative with activation

CCCOC1=C(N2CC2)C(=O)C(OCCC)=C(N2CC2)C1=O
mutagenic call [13]: active; positive | mutagenic call [10]: active; positive | mutagenic call [11]: active; positive

C=Cc1cc(C)cc(C)c1
mutagenic call [10]: active; positive | mutagenic call [11]: active; positive

CC(C)C[C@H]1C(=O)N2CCC[C@H]2[C@]2(O)O[C@](NC(=O)[C@@H]3C=C4c5cccc6[nH]c(Br)c(c56)C[C@H]4N(C)C3)(C(C)C)C(=O)N12
mutagenic call (Species/Cell Type: Human lymphocytes, Assay Type: Sister-chromatid exchange (SCE) in vitro, Assay Code: SCLT, Evaluation Type: Evaluation B (Post-1980)): no conclusion | mutagenic call (Species/Cell Type: Human, Assay Type: Sister-chromatid exchange (SCE) in vitro, Assay Code: SC1T, Evaluation Type: Evaluation B (Post-1980)): no conclusion | mutagenic call [9]: inactive; negative
